# Measurements reported in patent US10980782B2.
# Tests used:
# Assay type in all cases: in vivo
# [1] = test system: human liver cancer Hep-G2; experiment: Human tumor xenograft in nude mice, tumor inhibition rate, Hep-G2
# Description: (§1) 1) Number of animals: there are 6 nude mice for each experimental group and positive control group; weighing: 20-21 g.
# (§2) 2) Dosage and regimen of administration: the dose is described in the portion of the experimental results. The injection volume is 0.2 ml/mouse.
# (§3) 3) Control groups: the negative control is the corresponding vehicle. The positive control is taxol which is a widely clinically used antitumor drug.
# (§4) Under aseptic conditions, a tumor source with vigorous growth was taken to prepare a cell suspension of about 1-3×10^7/ml by a homogenization method. The suspension was injected subcutaneously into subaxillary region of nude mice at 0.2 ml/mouse. The drug was administered upon the tumor touchable. The drug was administered according to the regime. The animals in each group were sacrificed after the administration of three to four weeks. The tumors were taken and weighed, and the tumor inhibition rate was calculated according to the following formula: Tumor inhibition rate %=[(average tumor weight of the negative control group−average tumor weight of the compound administered group)/average tumor weight of the negative control group)×100%
# [2] = test system: human colorectal cancer HCT-15; experiment: Human tumor xenograft in nude mice, tumor inhibition rate, HCT-15; conditions: HCT-15 xenograft
# Description: as §1, §2, §3, §4
# human lung cancer A549 = experiment: Human tumor xenograft in nude mice, tumor inhibition rate, A549; conditions: alone at 50 mg/kg/d, iv×3, q3d
# [3] = test system: human prostate cancer PC-3; experiment: Human tumor xenograft in nude mice, tumor inhibition rate, PC-3; conditions: PC-3 xenograft, 10 mg/kg/time, iv×7qd
# Description: 1) Number of animals: there are 6 nude mice for each experimental group and positive control group; weighing: 20-21 g. The negative control has two groups.
# as §2, §3, §4
smiles,measurement,setting,value
"N.N.[Cl][Pt][Cl] [DDP, Cisplatin]",tumor inhibition rate,"[1]; alone at 1 mg/kg/d, iv×7, qd",45.33%
"O=c1[nH]cc(F)c(=O)[nH]1 [5 Fu, 5-fluorouracil]",tumor inhibition rate,"[2]; alone at 15 mg/kg/d, iv×7, qd",42.71%
Nc1ccn([C@@H]2O[C@H](CO)[C@@H](O)C2(F)F)c(=O)n1 [Gemcitabine],tumor inhibition rate,human lung cancer A549,39.23%
CC(=O)O[C@H]1C(=O)[C@@]2(C)[C@H]([C@H](OC(=O)c3ccccc3)[C@]3(O)C[C@H](OC(=O)[C@H](O)[C@@H](NC(=O)c4ccccc4)c4ccccc4)C(C)=C1C3(C)C)[C@]1(OC(C)=O)CO[C@@H]1C[C@@H]2O [taxol],tumor inhibition rate,[3],41.31%
same,tumor inhibition rate,"[2]; 10 mg/kg/time, iv×7qd",52.2%
same,tumor inhibition rate,"[1]; 10 mg/kg/time, iv×7qd",52.2%
